# Results as given in US7923465B2, “Cannabinoid receptor ligands, pharmaceutical compositions containing them, and process for their preparation” (priority 2005, dated 2011).
# Read-outs that look alike come from different tables or passages of the source.
# Tests used:
# CB1 [1] = target: T1, CB1 (Rattus norvegicus, UniProt P20272); assay: GTPγS binding assay, CB1 functional assay in rat cerebellar membrane (Protocol VIII); assay type: biochemical; parameters: 10 μg rat cerebellum membrane; from tissue; host or cells: rat cerebellum membrane, prepared in-house; conditions: for Per Se % Stimulation / activation at 1 µM: tested at 1 uM; for % Inhibition of WIN-55212-2 induced stimulation / inhibition at 1 µM: tested at 1 uM in presence of 1 μM WIN 55,212-2
# T1 sequence (P20272 whole entry): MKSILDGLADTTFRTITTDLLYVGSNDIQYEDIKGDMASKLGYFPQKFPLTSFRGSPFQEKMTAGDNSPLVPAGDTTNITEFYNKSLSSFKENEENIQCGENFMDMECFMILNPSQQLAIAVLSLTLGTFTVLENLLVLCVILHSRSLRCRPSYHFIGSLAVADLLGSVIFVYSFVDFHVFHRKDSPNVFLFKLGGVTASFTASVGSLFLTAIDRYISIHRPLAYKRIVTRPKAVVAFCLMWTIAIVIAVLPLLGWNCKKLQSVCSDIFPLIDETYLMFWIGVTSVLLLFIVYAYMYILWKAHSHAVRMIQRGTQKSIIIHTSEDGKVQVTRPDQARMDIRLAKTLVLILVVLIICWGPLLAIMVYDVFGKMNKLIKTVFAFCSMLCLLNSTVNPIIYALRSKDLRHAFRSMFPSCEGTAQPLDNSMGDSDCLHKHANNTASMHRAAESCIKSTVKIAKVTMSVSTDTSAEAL
# Method: VIII. Protocol for GTPγS Binding Assay (CB1 Functional Assay in Rat Cerebellar Membrane)
# In this GTPγS binding assay, total, basal and nonspecific binding were determined. See Griffin G., Atkinson P. J., Showalter V. M., Martin B. R. and Abood M. E., “Evaluation of cannabinoid receptor agonists and antagonists using the Guanosine-5′-O-(3-(^35S)thio)-triphosphate binding assay in rat cerebellar membranes,” J Pharmacol Exp Ther 285: 553-560, 1998. Three wells for total binding, three wells for basal binding, and three wells for nonspecific binding at 0.2 nM concentration of radioligand were used. Basal binding was defined by 50 μM GDP (Guanosine diphosphate) and non-specific binding was defined by 10 μM unlabeled GTPγS. 10 μg rat cerebellum membrane, 50 μM of GDP, WIN-55212-2 or test compound (1 μM or 300 nM), 10 μM unlabeled GTPγs, and 0.2 nM of [^35S]GTPγS were added into a 96 well plate and the final volume of the reaction mixture was made with GTPγS buffer (50 mM Tris, 3 mM anhydrous MgCl2, 0.2 mM EGTA and 100 mM NaCl pH 7.4) to 200 μl. The plates were incubated at 30° C. for 1 hour. Then the reaction was stopped by filtration using a Whatman GF/B-96 microfilter plate. Three washings were given using Tris-HCl. The radioactivity bound to the brain membrane was retained on the filter disks to which scintillation fluid was added (Microscint PS). Then plates were read for radioactive counts using a Beta Liquid Scintillation Counter (Packard Instruments, Ill., USA).
# The rat cerebellar brain membrane was prepared as follow: • 1. Sacrifice the rat and take out the whole brain and separate cerebellum as fast as possible and keep it on ice. • 2. Take the weight of the cerebellum and homogenize in 30 ml of homogenizing buffer (50 mM Tris-HCL containing 1 mM EDTA and 5% sucrose, pH 7.5) using homogenizer in cold condition. • 3. Centrifuge the homogenized cerebellum at 18000 rpm (38000 g) for 15 min at 4° C. • 4. Resuspend the pellet in 5 ml 50 mM Tris-HCL containing 1 mM EDTA and keep it on ice for 30 min. • 5. Pass the membrane through insulin syringe to ensure uniform suspension. • 6. Centrifuge the membrane at 18000 rpm at 4° C. for 20 min. • 7. Reconstitute the pellet in 3 ml of GTPγS buffer and estimate the protein by BCA assay and store the membrane in aliquots of 1000 μg of protein. CB1 Agonist and Antagonist Activity Screening Assay
# The test compounds were screened at a final concentration of 1 μM or 300 nM in the absence and presence of 1 μM of WIN 55, 212-2 in the same manner as described in the GTPγS binding assay.
# An agonist will stimulate the GTPγS binding over the basal.
# An inverse agonist will decrease the basal GTPγS binding and/or produce more than 100% inhibition of the agonist (WIN-55212-2) induced stimulation.
# The percent stimulation of GTPγS binding by each test compound at 1 μM or 300 nM concentration in the absence and presence of 1 μM WIN 55, 212-2 was calculated by comparing it with basal specific bound (Basal binding—Non Specific binding) values.
# CB1 [2] = target: T1, CB1; assay: Rat CB1 receptor binding using brain membrane, [3H]SR141716A displacement (Protocol I); parameters: CB1 receptor present in a rat brain membrane preparation; from tissue; host or cells: rat brain membrane; inhibition: dose or concentration left out as unconfirmed; conditions: for inhibition: 1 h
# Method: I. In Vitro Protocol for Rat CB1 Receptor Binding Using Brain Membrane
# In this assay, [^3H]SR141716A (5-(4-chlorophenyl)-1-(2,4-dichlorophenyl)-4-methyl-N-(1-piperidyl)pyrazole-3-carboxamide) was used to bind the CB1 receptor present in a rat brain membrane preparation which can be displaced by unlabeled ligands having affinity to the CB1 receptor.
# The assay was performed according to the modified method of Thomas et al., 1998 (JPET 285: 285-292). The total reaction mixture ([…]) contained Tris-BSA buffer (50 mM Tris, pH 7.4 with 1.5% BSA) or unlabeled SR141716A […] or test samples […], [^3H] SR141716A (2 nM) and […] of rat brain membrane. The non-specific binding was defined by […] of SR141716A. The assay mixture was incubated at 37° C. for 1 hour. The reaction was then stopped by rapid filtration under vacuum using Whatman GF/B-96 micro filter plate. A scintillation cocktail was added and radioactive counts were measured using a Topcount beta scintillation counter.
# The standard and test sample dilutions were made in an assay buffer containing either ethanol or DMSO at a final concentration of 1%.
# The percent (%) displacement by a test ligand was calculated by comparing the specific bound values.
# hCB2 = hCB2 (Homo sapiens, UniProt P34972); assay: In vitro binding assay using hCB2-CHO membranes, [3H]-CP-55,940 displacement (Protocol IV); parameters: expressed in transfected cells; host or cells: CHO (hCB2-CHO, generated in-house); conditions: 1 h; hCB2-CHO membranes, [3H]-CP-55,940 displacement; read-out: % Displacement Protocol IV
# Chain of hCB2 (P34972 whole entry): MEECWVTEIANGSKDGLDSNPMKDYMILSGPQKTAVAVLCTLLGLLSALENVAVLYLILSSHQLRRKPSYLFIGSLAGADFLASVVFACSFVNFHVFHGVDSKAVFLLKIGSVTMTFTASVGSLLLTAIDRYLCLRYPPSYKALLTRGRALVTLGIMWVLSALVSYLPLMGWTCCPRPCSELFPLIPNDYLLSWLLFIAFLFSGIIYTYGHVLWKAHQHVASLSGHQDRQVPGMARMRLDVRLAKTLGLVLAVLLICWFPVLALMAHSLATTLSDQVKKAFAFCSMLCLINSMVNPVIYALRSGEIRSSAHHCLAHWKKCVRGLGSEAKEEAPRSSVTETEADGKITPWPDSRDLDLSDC
# How it was run: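 Compounds were tested at a single 300 nM final concentration for displacing 0.75 nM [3H]-CP-55,940 from hCB2-CHO membranes (1 h, 30 °C, 50 mM Tris pH 7.4, 5 mM MgCl2, 1 mM EDTA, 0.1% BSA). Filter-bound radioactivity was counted, with 0.5 μM unlabelled CP-55,940 for nonspecific binding; results are % displacement.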
# [3] = GTPγS binding over basal, rat cerebellar membrane
# [4] = rat brain membrane, [3H]SR141716A displacement
# [5] = 1 h, GTPγS binding over basal, rat cerebellar membrane, read-out: Per Se % Stimulation
# [6] = GTPγS binding, read-out: % Inhibition of WIN-55212-2 induced stimulation
# [7] = rat brain membrane, [3H]SR141716A displacement, read-out: % Displacement Protocol I
SMILES,inhibition (CB1 [2]; [7]),melting point,inhibition at 0.3 µM (hCB2),other results
CN(NC(=O)c1nn(-c2ccc(Cl)cc2)c2c1C1CC3CC(C1)CC2C3)c1ccc(Cl)cc1Cl [Example 127],–,–,–,Per Se % Stimulation (CB1 [1]; [3]): 18.0%; % Inhibition of WIN-55212-2 induced stimulation (CB1 [1]; GTPγS binding): 100.2%; % Displacement Protocol I (CB1 [2]; [4]): 85.3%
"O=C(NCc1ccccc1)c1nn(-c2ccc(Cl)cc2Cl)c2c1C1CCC2C1 (stereo not drawn) [Example 269, N(5)-benzyl-3-(2′,4′-dichlorophenyl)-3,4-diazatricyclo[5.2.1.0^2,6]deca-2(6),4-diene-5-carboxamide]",47.7%,–,–,activation at 1 µM (CB1 [1]; [5]): 6%; inhibition at 1 µM (CB1 [1]; [6]): 91.4%
"Cl.O=C(NN1CCCCC1)c1nn(-c2ccc(Cl)cc2Cl)c2c1C1CCC2c2ccccc21 (stereo not drawn) [Example 503, N(12)-Piperidino-10-(2,4-dichlorophenyl)-10,11-diazatetracyclo[6.5.2.0^2,7.0^9,13]pentadeca-2,4,6,9(13),11-pentaene-12-carboxamide hydrochloride]",–,–,–,"Per Se % Stimulation (CB1 [1]; [3]): 1.5%; % Inhibition of WIN-55212-2 induced stimulation (CB1 [1]; GTPγS binding): 92.0%; inhibition (CB1 [2]; read-out: % Displacement Protocol I, rat brain membrane, [3H]SR141716A displacement): 81.2%"
"O=C(NC1CCCCC1)c1nn(-c2ccc(Cl)cc2Cl)c2c1C1CCC2C1 (stereo not drawn) [Example 237, N(3)-Cyclohexyl-1-(2,4-dichlorophenyl)-4,5,6,7-tetrahydro-1H-4,7-methano-indazole-3-carboxamide]",65.6%,–,–,activation at 1 µM (CB1 [1]; [5]): 7.1%; inhibition at 1 µM (CB1 [1]; [6]): 74.7%
"O=C(NCc1ccccc1)c1nn(-c2ccc(Cl)cc2)c2c1C1CC3CC(C1)CC2C3 [Example 139, N(7)-Benzyl-5-(4′-chlorophenyl)-5,6-diazatetracyclo[7.3.1.1^3,11.0^4,8]tetradeca-4(8)-6-diene-7-carboxamide]",–,–,–,Per Se % Stimulation (CB1 [1]; [3]): −8.5%; % Inhibition of WIN-55212-2 induced stimulation (CB1 [1]; GTPγS binding): 109.1%; % Displacement Protocol I (CB1 [2]; [4]): 62.4%
"O=C(NNc1ccc(Cl)cc1Cl)c1nn(-c2ccc(Cl)cc2)c2c1C1CC3CC(C1)CC2C3 [Example 126, N(7)-(2,4-Dichlorophenylamino)-5-(4-chlorophenyl)-5,6-diazatetracyclo[7.3.1.1^3,11.0^4,8]tetradeca-4(8),6-diene-7-carboxamide]",118%,–,–,activation at 1 µM (CB1 [1]; [5]): -7.9%; inhibition at 1 µM (CB1 [1]; [6]): 104%
"O=C(NC12CC3CC(CC(C3)C1)C2)c1nn(-c2ccc(Cl)cc2Cl)c2c1C1CCC2C1 (stereo not drawn) [Example 242, N(3)-(Adamantan-1yl)-1-(2,4-dichlorophenyl)-4,5,6,7-tetrahydro-1H-4,7-methano-indazole-3-carboxamide]",–,201 to 204 °C,–,"activation at 0.3 µM (CB1 [1]; 1 h, GTPγS binding over basal, rat cerebellar membrane, tested at 300 nM, read-out: Per Se % Stimulation): 33.4%; inhibition at 0.3 µM (CB1 [1]; GTPγS binding, tested at 300 nM in presence of 1 μM WIN 55,212-2, read-out: % Inhibition of WIN-55212-2 induced stimulation): 22.9%"
"O=C(NN1CCCCC1)c1nn(-c2ccc(Cl)cc2)c2c1C1CCC2C1 (stereo not drawn) [Example 209, N(3)-Piperidino-1-(4-chlorophenyl)-4,5,6,7-tetrahydro-1H-4,7-methano-indazole-3-carboxamide]",23.5%,78 to 81 °C,50.5%,–
"O=C(NNc1ccccc1)c1n[nH]c2c1C1(c3ccccc3)CCC2C1 (stereo not drawn) [Example 204, N(3)-Phenylamino-4-phenyl-4,5,6,7-tetrahydro-1H-4,7-methano-indazole-3-carboxamide]",-10.3%,189 °C,10.5%,–
"Cc1ccc(-n2nc(C(=O)NNc3ccc(Cl)cc3Cl)c3c2C2CC4CC(CC3C4)C2)cc1 [Example 161, N(7)-(2,4-Dichlorophenylamino)-5-(4-methylphenyl)-5,6-diazatetracyclo[7.3.1.1^3,11.0^4,8]tetradeca-4(8),6-diene-7-carboxamide]",27.9%,208 to 215 °C,39.4%,–
"O=C(NNc1ccccc1F)c1nn(-c2ccc(Cl)cc2)c2c1C1CCC2C1 (stereo not drawn) [Example 232, N(3)-[(2-Fluorophenyl)amino]-1-(4-chlorophenyl)-4,5,6,7-tetrahydro-1H-4,7-methano-indazole-3-carboxamide]",49.7%,91 °C,13.8%,–
"O=C(NCc1ccccn1)c1nn(-c2ccc(Cl)cc2)c2c1C1CC3CC(C1)CC2C3 [Example 120, N(7)-(2-Pyridylmethyl)-5-(4-chlorophenyl)-5,6-diazatetracyclo[7.3.1.1^3,11.0^4,8]tetradeca-4(8),6-diene-7-carboxamide]",30.4%,187 °C,9.18%,–
"O=C(NCc1ccc(Cl)cc1)c1nn(-c2ccc(Cl)cc2Cl)c2c1C1CCC2C1 (stereo not drawn) [Example 250, N(3)-(4-Chlorobenzyl)-1-(2,4-dichlorophenyl)-4,5,6,7-tetrahydro-1H-4,7-methano-indazole-3-carboxamide]",27.1%,139 to 142 °C,27.9%,–
"O=C(NNc1ccc(F)cc1)c1nn(-c2ccc(Cl)cc2)c2c1C1CCC2C1 (stereo not drawn) [Example 234, N(3)-[(4-Fluorophenyl)amino]-1-(4-chlorophenyl)-4,5,6,7-tetrahydro-1H-4,7-methano-indazole-3-carboxamide]",36.3%,212 °C,10.6%,–
"O=C(NN1CCOCC1)c1nn(-c2ccc(Cl)cc2)c2c1C1CC3CC(C1)CC2C3 [Example 103, N(7)-Morpholino-5-(4-chlorophenyl)-5,6-diazatetracyclo[7.3.1.1^3,11.0^4,8]tetradeca-4(8),6-diene-7-carboxamide]",22.2%,220 °C,6.99%,–
"O=C(NN1CCCCC1)c1nn(-c2ccc(Br)cc2)c2c1C1CCC2C1 (stereo not drawn) [Example 274, N(3)-Piperidino-1-(4-bromophenyl)-4,5,6,7-tetrahydro-1H-4,7-methano-indazole-3-carboxamide]",25.7%,173 °C,35.4%,–
